Laboratory results published in US7183383B2, “Uses of collagen IV” (The University of Arkansas for Medical Sciences, priority 2002, dated 2007).

Experiments:
[1] = system: renal proximal tubular cells; assay: Basal oxygen consumption (QO2), a measure of mitochondrial function; format: cell-based, rabbit; details: for repair of basal QO2: day 6 after DCVC injury
Method: (§1) Confluent monolayers of renal proximal tubular cells (day 6 after seeding) were exposed to 200 μM S-(1,2-dichlorovinyl)-L-cysteine (dissolved in water) for 1.75 hours followed by toxicant removal and addition of fresh culture media. This method produces approximately 50% cell death and loss 24 hours after the exposure. On days 1, 4, and 6 following S-(1,2-dichlorovinyl)-L-cysteine exposure, the ability of the remaining renal proximal tubular cells to regenerate and repair physiological function was monitored as described below. In some experiments, immediately after S-(1,2-dichlorovinyl)-L-cysteine exposure and after daily media change through day 6 after injury, collagen I (0, 5, 15, or 50 μg/ml), collagen IV (0, 5, 15, or 50 μg/ml), laminin (50 μg/ml), or cellular fibronectin (50 μg/ml) was added to the culture media of uninjured and S-(1,2-dichlorovinyl)-L-cysteine-injured renal proximal tubular cells grown in physiological concentrations of AscP. Exogenous collagens I and IV used in this study were triple helical and contained only α1 and α2 chains in conformations similar to those found in the renal basement membrane (3, 25). Laminin was a mixture of biologically active laminin chains found in most epithelial tissues (8, 50) and cellular fibronectin was composed of functional dimers (51).
On days 1, 4, and 6 after sublethal S-(1,2-dichlorovinyl)L-cysteine injury, renal proximal tubular cells bathed in 37° C. culture medium were gently detached from culture dishes with a rubber policeman and transferred to a 37° C. oxygen consumption (QO2) chamber. Basal renal proximal tubular cells QO2 was measured polarographically using a Clark-type electrode as described previously (36).

[2] = system: Na^+/K^+-ATPase activity in renal proximal tubular cells; assay: Na^+/K^+-ATPase activity (ouabain-sensitive ATPase); format: cell-based, rabbit
Method: as §1
On days 1 and 6 after sublethal S-(1,2-dichlorovinyl)-L-cysteine injury, total ATPase activity was measured using a modification of a previously described procedure (44). Briefly, renal proximal tubular cells cultured in 48-well cell culture clusters were scraped and incubated in dissociation buffer (5 mM HEPES (pH 7.4), 25 mM imidazole, 1% BSA, 0.065% sodium dodecyl sulfate (SDS)) for 10 min. at room temperature and placed on ice. The dissociated renal proximal tubular cells were then diluted 5-fold with additional dissociation buffer minus SDS. Aliquots of dissociated renal proximal tubular cells were combined with fresh ATPase assay buffer (2.54 mM MgCl2, 100 mM NaCl, 10 mM KCl, 5 mM HEPES, 10 U/ml lactate dehydrogenase, 7 U/ml pyruvate kinase, 2.54 mM Na2ATP, 2.54 mM phospho(enol)pyruvate, and 0.5 mM β-NADH). ATPase activity was measured under linear conditions spectrophotometrically as the oxidation of β-NADH to NAD^+ at 37° C. in the absence or presence of ouabain (0.1 mM) at a wavelength of 340 nm. Na^+/K^+-ATPase activity was calculated as total ATPase activity minus ouabain-insensitive ATPase activity.
Confluent monolayers of renal proximal tubular cells (day 6 after seeding) were exposed to 200 μM S-(1,2-dichlorovinyl)-L-cysteine (dissolved in water) for 1.75 hours followed by toxicant removal and addition of fresh culture media. This method produces approximately 50% cell death and loss 24 hours after the exposure. In some experiments, exogenous collagen IV (50 μg/ml), collagen I (50 μg/ml), or function-stimulating antibodies to collagen-binding integrin subunits α2 or β1 (5 μg/ml) was added daily to the culture media of S-(1,2-dichlorovinyl)-L-cysteine-injured renal proximal tubular cells cultured in the absence of pharmacological concentrations of L-ascorbic acid-2-phosphate. Function-stimulating antibodies to collagen-binding integrin α1 are not commercially available at this time. On days 1 and 6 following S-(1,2-dichlorovinyl)-L-cysteine exposure, active Na^+ transport or Na^+/K^+-ATPase activity, and collagen-binding integrin expression and/or localization in the remaining sublethally injured renal proximal tubular cells was determined as described below.
Total ATPase activity was measured as described above. […]

[3] = one day after DCVC (200 μM), both 50 μM and 500 μM AscP

O=C1O[C@H]([C@@H](O)CO)C(O)=C1OP(=O)(O)O [L-ascorbic acid-2-phosphate, L-Ascorbic acid-2-phosphate]
QO2 ([1]; day 4 after DCVC, 50 μM or 500 μM AscP): remained at day 1 levels | QO2 higher than in RPTC grown in 50 μM AscP ([1]; day 6 after DCVC, 500 μM AscP): 49% | QO2 relative to controls ([1]; day 6 after DCVC, 500 μM AscP): equal to that of controls | basal QO2, untreated RPTC, 50 μM vs 500 μM ([1]; uninjured RPTC): equivalent at all time points | Na^+/K^+-ATPase activity higher than in injured RPTC in physiological AscP ([2]; day 6 after DCVC, 500 μM AscP): approximately 150% | Na^+/K^+-ATPase activity, untreated RPTC, 50 μM vs 500 μM ([2]; uninjured RPTC): equivalent at all time points

N[C@@H](CSC(Cl)=CCl)C(=O)O [S-(1,2-dichlorovinyl)-L-cysteine]
decrease in QO2 [1, 3]: approximately 50% | decrease in Na^+/K^+-ATPase activity [2, 3]: ~65%

collagen IV: Human placenta collagen IV (Sigma); triple helical, containing only α1 and α2 chains
decrease in basal QO2 ([1]; day 1 after DCVC injury, in presence of exogenous protein): approximately 50% | repair of basal QO2 ([1]; 50 μg/ml): complete repair | repair of basal QO2 ([1]; 5, 15, 50 μg/ml): recovered basal QO2 | basal QO2 in untreated RPTC ([1]; uninjured RPTC, days 1 or 6, exogenous protein): no effect | Na^+/K^+-ATPase activity in injured RPTC ([2]; day 6 after DCVC injury, 50 μg/ml): significantly increased
